Inhibition and Ki data for eleven compounds are collected here from ChEMBL document CHEMBL1137065, “Identification of peptidomimetic HTLV-I protease inhibitors containing hydroxymethylcarbonyl (HMC) isostere as the transition-state mimic” (Bioorg Med Chem Lett, 2004).

Starred links: 1 amine or outer side, 2 acyl side, 3 side chain; linkers in the order of their positions; H or OH if unused. Non-standard residues stand in square brackets, D forms with d. Residues, ends and D or L forms follow the SMILES beside them. X1 = O=C(C(O)[C@H](Cc1ccccc1)N[*:1])[*:2]; X2 = CC(C)C[C@H](N[*:1])C(O)C(=O)[*:2]; Thz(5,5-Me2) = CC1(C)SCN[C@@H]1C(=O)O

Experiment [1] deals with Human immunodeficiency virus type 1 protease (Human immunodeficiency virus 1) (UniProt Q72874). Description: Percent inhibition of human immunodeficiency virus type I (HIV-1) protease was determined at 50 uM concentration.
Experiment [2] concerns the target T1, Gag-Pro polyprotein (Human T-cell leukemia virus 1 (strain Japan ATK-1 subtype A) (HTLV-1)) (UniProt P10274).
T1 sequence (whole entry): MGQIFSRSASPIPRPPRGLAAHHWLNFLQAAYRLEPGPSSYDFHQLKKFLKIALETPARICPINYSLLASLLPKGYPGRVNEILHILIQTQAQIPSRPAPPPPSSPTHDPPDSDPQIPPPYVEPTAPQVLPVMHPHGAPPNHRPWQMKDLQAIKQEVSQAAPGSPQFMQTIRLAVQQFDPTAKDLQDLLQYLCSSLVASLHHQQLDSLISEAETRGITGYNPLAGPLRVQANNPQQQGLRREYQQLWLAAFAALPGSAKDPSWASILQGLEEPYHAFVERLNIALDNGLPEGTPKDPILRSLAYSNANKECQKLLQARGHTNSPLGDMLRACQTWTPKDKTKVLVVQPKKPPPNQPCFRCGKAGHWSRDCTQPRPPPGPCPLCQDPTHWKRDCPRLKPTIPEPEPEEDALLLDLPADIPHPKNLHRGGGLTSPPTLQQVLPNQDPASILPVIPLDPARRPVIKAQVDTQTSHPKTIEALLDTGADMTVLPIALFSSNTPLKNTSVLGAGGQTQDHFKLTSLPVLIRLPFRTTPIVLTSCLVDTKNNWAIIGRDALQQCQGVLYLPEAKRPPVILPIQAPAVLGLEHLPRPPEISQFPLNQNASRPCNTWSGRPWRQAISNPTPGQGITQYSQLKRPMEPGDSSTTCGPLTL
Kind of experiment: Percent inhibition of recombinant human T-cell leukemia virus type I (HTLV-1) protease was determined at 100 uM concentration. To be noted: human T-cell leukemia virus type 1.

In experiment [3] the target is T1, Gag-Pro polyprotein (Human T-cell leukemia virus 1 (strain Japan ATK-1 subtype A) (HTLV-1)). Kind of experiment: Percent inhibition of synthesized human T-cell leukemia virus type I (HTLV-1) protease was determined at 100 uM concentration. To be noted: human T-cell leukemia virus type 1.
For experiment [4] the target is unchanged. Kind of experiment: Percent inhibition of synthesized human T-cell leukemia virus type I (HTLV-1) protease was determined at 50 uM concentration. The note with it: Human T-cell lymphotrophic virus type 1 (strain ATK).
For experiment [5] the target is unchanged. Description: Percent inhibition of recombinant human T-cell leukemia virus type I (HTLV-1) protease was determined at 50 uM concentration. The note with it: Human T-cell lymphotrophic virus type 1 (strain ATK).
Experiment [6] deals with T2, Gag-Pro polyprotein (Human T-cell leukemia virus 1 (strain Japan ATK-1 subtype A) (HTLV-1), UniProt P10274).
T2 sequence (P10274 whole entry): T1 sequence (whole entry)
Kind of experiment: Inhibitory binding affinity towards synthesized human T-cell leukemia virus type I (HTLV-1) protease. Also on record: species or system human T-cell leukemia virus type 1.

Experiment [7] deals with T2, Gag-Pro polyprotein. Kind of experiment: Inhibitory binding affinity towards recombinant human T-cell leukemia virus type I (HTLV-1) protease. Also on record: species or system human T-cell leukemia virus type 1.

By inhibition is commonly meant the relative decrease from the control value, in per cent. For `CC(C)c1nc(CN(C)C(=O)N[C@H](C(=O)N[C@@H](Cc2ccccc2)C[C@H](O)[C@H](Cc2ccccc2)NC(=O)OCc2cncs2)C(C)C)cs1`, the results for the inhibition in experiment [1], in experiment [2] and in experiment [3] were 100%, 20% and 20%, respectively.
In the case of `Cc1c(O)cccc1C(=O)NC(Cc1ccccc1)C(O)C(=O)N1CSC(C)(C)C1C(=O)NC(C)(C)C` (stereo not drawn), the values for the inhibition in experiment [1], in experiment [2] and in experiment [3] were 88%, 38% and 57%, respectively.
As to `Cc1cccc(C)c1OCC(=O)NC(Cc1ccccc1)C(O)C(=O)N1CSC(C)(C)C1C(=O)NC(C)(C)C` (stereo not drawn), the inhibition in experiment [1] is 96%; in experiment [2], 43%; in experiment [3], 32%.
Taken in the same sequence, the figures for `Cc1ccccc1CNC(=O)C1N(C(=O)C(O)C(Cc2ccccc2)NC(=O)COc2c(C)cccc2C)CSC1(C)C` (stereo not drawn) were 98%, 19% and 11%.
The matching figures for `Cc1ccccc1CNC(=O)C1N(C(=O)C(O)C(Cc2ccccc2)NC(=O)c2cccc(O)c2C)CSC1(C)C` (stereo not drawn): 96%, 31% and 79%.
Consider `CSCC[C@H](NC(=O)[C@@H](NC(=O)[C@@H]1CCCN1C(=O)C(O)[C@H](Cc1ccccc1)NC(=O)[C@@H](NC(=O)[C@H](CCC(N)=O)NC(=O)[C@@H]1CCCN1)C(C)C)C(C)C)C(=O)N[C@@H](Cc1c[nH]cn1)C(=O)O` (stereo partly drawn) (H-PQV[X1]PVMH-OH), for which the inhibition was 59% in experiment [4], 54% in experiment [5], 6% in experiment [1] and 94% in experiment [2].
As a reminder, the Ki is a measure of affinity in units of concentration, obtained from inhibition or displacement. Consider `CSCC[C@H](NC(=O)[C@@H](NC(=O)[C@H]1N(C(=O)C(O)[C@H](Cc2ccccc2)NC(=O)[C@@H](NC(=O)[C@H](CCC(N)=O)NC(=O)[C@@H]2CCCN2)C(C)C)CSC1(C)C)C(C)C)C(=O)N[C@@H](Cc1cnc[nH]1)C(=O)O` (stereo partly drawn) (H-PQV[X1][Thz(5,5-Me2)]VMH-OH), for which the Ki at Gag-Pro polyprotein [6] was 2 µM; on Gag-Pro polyprotein [7], 3.9 µM.
For the compound `CSCC[C@H](NC(=O)[C@@H](NC(=O)[C@H]1N(C(=O)C(O)[C@H](Cc2ccccc2)NC(=O)[C@@H](NC(=O)[C@H](CCC(N)=O)NC(=O)[C@@H]2CCCN2)C(C)C)CSC1(C)C)C(C)C)C(=O)N[C@@H](Cc1c[nH]cn1)C(=O)O` (stereo partly drawn) (H-PQV[X1][Thz(5,5-Me2)]VMH-OH), the inhibition in experiment [4] amounted to 80%; in experiment [5] it was 66%; in experiment [1] it was 58%; in experiment [2], 100%.
Taken in the same sequence, the figures for `CSCC[C@H](NC(=O)[C@@H](NC(=O)[C@@H]1CCCN1C(=O)C(O)[C@H](CC(C)C)NC(=O)[C@@H](NC(=O)[C@H](CCC(N)=O)NC(=O)[C@@H]1CCCN1)C(C)C)C(C)C)C(=O)N[C@@H](Cc1c[nH]cn1)C(=O)O` (stereo partly drawn) (H-PQV[X2]PVMH-OH) were 58%, 43%, 3% and 93%.
The matching figures for `CSCC[C@H](NC(=O)[C@@H](NC(=O)[C@H]1N(C(=O)C(O)[C@H](CC(C)C)NC(=O)[C@@H](NC(=O)[C@H](CCC(N)=O)NC(=O)[C@@H]2CCCN2)C(C)C)CSC1(C)C)C(C)C)C(=O)N[C@@H](Cc1c[nH]cn1)C(=O)O` (stereo partly drawn) (H-PQV[X2][Thz(5,5-Me2)]VMH-OH): 76%, 63%, 37% and 100%.
For `CC(C)CC(=O)N[C@H](C(=O)N[C@H](C(=O)N[C@@H](CC(C)C)[C@@H](O)CC(=O)N[C@@H](C)C(=O)N[C@@H](CC(C)C)[C@@H](O)CC(=O)O)C(C)C)C(C)C` [PEPSTATIN], the inhibition in experiment [4] was determined as 15%; in experiment [5] it was 17%; in experiment [1], 23%. The Ki is 36.5 µM on Gag-Pro polyprotein [6] and 14.6 µM on Gag-Pro polyprotein [7].
